Earlier results as cited in patent publication US20180146647A1, “MEDETOMIDINE FOR USE IN CONTROLLING PARASITIC CRUSTACEANS ON FISH” (I-Tech AB, priority 2015, published 2018).

Key:
α2-adrenoceptor = settings: given to mammals and fish; Sinclair, 2003; Ruuskanen et al., 2005
algae = settings: target protein lacking within algae
cyprid larvae = settings: medetomidine 10 nM; Mol Pharmacol 78:237-248, 2010

Cc1cccc(C(C)c2c[nH]cn2)c1C (racemic) [Medetomidine, (±) 4-[1-(2,3-Dimethylphenyl)ethyl]-1H-imidazole]
physiological effect in vertebrates (α2-adrenoceptor): sedation and locomotor inhibition | effect on algal growth (algae): no effect on algal growth | kicking of the cyprid larvae (cyprid larvae): more than 100 kicks per minute
